Article PMC9151520 (Archives of Toxicology, 2022)
Where two headings read alike, the source gives them in different places.

Tests used:
[1] = system: p53 signaling (p53RE-bla HCT-116 cells)
[2] = system: p53 signaling (p53RE-bla HCT-116 cells); remark: listed apart in the source
[3] = system: p53 signaling (p53RE-bla HCT-116 cells); experiment: cells; type: cell-based
[4] = Homo sapiens, HCT-116, read-out: p53 activation EC50, cherry pick confirmation
[5] = Homo sapiens, HCT-116, read-out: p53 activation EC50, primary screening
[6] = Homo sapiens, HCT-116, read-out: p53 activation efficacy, cherry pick confirmation
[7] = Homo sapiens, HCT-116, read-out: p53 activation efficacy, primary screening

## O=C(c1ccc(O)cc1)c1ccc(O)cc1O [2,4,4'-Trihydroxybenzophenone]
[1]
  EC50, p53 activation, cherry pick confirmation: inactive
  EC50, p53 activation, primary screening: inactive
  Efficacy, p53 activation, cherry pick confirmation: inactive
  Efficacy, p53 activation, primary screening: inactive
[2]
  EC50, p53 activation, cherry pick confirmation: inactive
  EC50, p53 activation, primary screening: inactive
  Efficacy, p53 activation, cherry pick confirmation: inactive
  Efficacy, p53 activation, primary screening: inactive
[3]
  EC50, p53 activation, cherry pick confirmation: inactive
  Efficacy, p53 activation, cherry pick confirmation: inactive
  Efficacy, p53 activation, primary screening: 51.9983
[3]; read-out: EC50, p53 activation, primary screening
  EC50: 46500 nM
p53RE-bla HCT-116 cells
  EC50, viability, cherry pick confirmation: inactive
  EC50, viability, primary screening: inactive
  Efficacy, viability, cherry pick confirmation: inactive
  Efficacy, viability, primary screening: inactive

## CCOC(=O)CCN(SN(C)C(=O)Oc1cccc2c1OC(C)(C)C2)C(C)C [Benfuracarb]
[1]
  p53 activation EC50: inactive
[2]
  p53 activation EC50: inactive
[3]
  p53 activation EC50: inactive
  p53 activation efficacy: inactive
p53RE-bla HCT-116 cells
  Viability EC50: inactive
  Viability efficacy: inactive

## CCCSc1ccc2nc(NC(=O)OC)[nH]c2c1 [Albendazole]
[1]
  p53 activation EC50, cherry pick confirmation: inactive
  p53 activation EC50, primary screening: inactive
  p53 activation efficacy, cherry pick confirmation: inactive
  p53 activation efficacy, primary screening: inactive
[2]
  p53 activation EC50, cherry pick confirmation: inactive
  p53 activation EC50, primary screening: inactive
  p53 activation efficacy, cherry pick confirmation: inactive
  p53 activation efficacy, primary screening: inactive
[3]; [4]
  EC50: 113 nM
[3]; [5]
  EC50: 517 nM
[3]; [6]
  Emax: 31.1%
[3]; [7]
  Emax: 40.1%
p53RE-bla HCT-116 cells
  Viability EC50, cherry pick confirmation: inactive
  Viability EC50, primary screening: inactive
  Viability efficacy, cherry pick confirmation: inactive
  Viability efficacy, primary screening: inactive

## C/C=C(/C(=C/C)c1ccc(O)cc1)c1ccc(O)cc1 [Dienestrol]
[1]
  p53 activation EC50, cherry pick confirmation: inactive
  p53 activation EC50, primary screening: inactive
  p53 activation efficacy, cherry pick confirmation: inactive
  p53 activation efficacy, primary screening: inactive
[2]
  p53 activation EC50, cherry pick confirmation: inactive
  p53 activation EC50, primary screening: inactive
  p53 activation efficacy, cherry pick confirmation: inactive
  p53 activation efficacy, primary screening: inactive
[3]; [4]
  EC50: 7790 nM
[3]; [5]
  EC50: 7810 nM
[3]; [6]
  Emax: 36.1%
[3]; [7]
  Emax: 32.6%
p53RE-bla HCT-116 cells
  Viability EC50, cherry pick confirmation: inactive
  Viability EC50, primary screening: inactive
  Viability efficacy, cherry pick confirmation: inactive
  Viability efficacy, primary screening: inactive

## COc1c(C)c2c(c(O)c1C/C=C(\C)CCC(=O)OCCN1CCOCC1)C(=O)OC2 [Mycophenolate mofetil]
[1]
  p53 activation EC50, cherry pick confirmation: inactive
  p53 activation EC50, primary screening: inactive
  p53 activation efficacy, cherry pick confirmation: inactive
  p53 activation efficacy, primary screening: inactive
[2]
  p53 activation EC50, cherry pick confirmation: inactive
  p53 activation EC50, primary screening: inactive
  p53 activation efficacy, cherry pick confirmation: inactive
  p53 activation efficacy, primary screening: inactive
[3]; [4]
  EC50: 209 nM
[3]; [5]
  EC50: 163 nM
[3]; [6]
  Emax: 56.2%
[3]; [7]
  Emax: 36.3%
p53RE-bla HCT-116 cells
  Viability EC50, cherry pick confirmation: inactive
  Viability EC50, primary screening: inactive
  Viability efficacy, cherry pick confirmation: inactive
  Viability efficacy, primary screening: inactive
